# According to ChEMBL document CHEMBL1156865, “Chemical delivery system of metaiodobenzylguanidine (MIBG) to the central nervous system” (J Med Chem, 2010):
# Key:
# Brain [1] = experiment: Drug uptake in Sprague-Dawley rat brain at 15 to 120 MBq, iv after 60 mins; assay type: ADME, organism-based; conditions: in vivo, 1 h
# [2] = Stability in Sprague-Dawley rat blood at 10 MBq assessed as radioactive compound recovery; assay type: ADME, tissue-based; conditions: whole blood, read-out: Stability
# Brain [3] = experiment: Stability in Sprague-Dawley rat brain assessed as polar radioactive metabolite level at 15 to 120 MBq, iv after 60 mins; assay type: ADME, organism-based; conditions: in vivo, 1 h
# [4] = Stability in Sprague-Dawley rat brain assessed as unchanged parent compound level at 15 to 120 MBq, iv after 3 mins; assay type: ADME, organism-based; conditions: read-out: Stability
# Brain [5] = experiment: Stability in Sprague-Dawley rat brain assessed as polar radioactive metabolite level at 15 to 120 MBq, iv after 3 mins; assay type: ADME, organism-based; conditions: in vivo, 0.05 h
# [6] = Stability in Sprague-Dawley rat brain assessed as unchanged parent compound level at 15 to 120 MBq, iv after 60 mins; assay type: ADME, organism-based; conditions: read-out: Stability
# Brain [7] = experiment: Drug uptake in Sprague-Dawley rat brain at 15 to 120 MBq, iv after 3 mins; assay type: ADME, organism-based; conditions: in vivo, 0.05 h
smiles,measurement,setting,value
[11CH3]N1C=C(C(=O)NC(=N)NCc2cccc(I)c2)Cc2ccccc21,Drug uptake,Brain [1],0.06 % ID/g
same,remaining at 10 MBq,[2],> 90%
same,Activity,Brain [3],41%
same,remaining at 0.05 h,[4],96%
same,Activity,Brain [5],4%
same,remaining at 1 h,[6],59%
same,Drug uptake,Brain [7],0.1 % ID/g
